We go through one compound from US9675591B2, “Methods for treating seizure disorders and pain” (THE REGENTS OF THE UNIVERSITY OF CALIFORNIA, priority 2013, dated 2017).

The subject of one assay is CA1 pyramidal neurons. In words: Hippocampal slice recordings. The assay is classed as cell-based, mouse. The conditions noted are these: for effect on AP firing: 1-s 150-pA current injection. How it is done:
Brain slice preparation was approved by the University of California, Irvine, Institutional Animal Care and Use Committee. Male C57BL/6 J mice (postnatal day 23) were anesthetized with halothane, decapitated, and brains transferred to an ice-cold, sucrose artificial cerebral spinal fluid (ACSF; Sigma-Aldrich). Hippocampal slices (300 μm) were prepared using a Leica VT1200S vibrating blade microtome (Leica Microsystems Inc., Buffalo Grove, Ill.). Slices were incubated at 33° C. in oxygenated (95% O2, 5% CO2) standard ACSF containing the following (mM) for at least 1 h before recordings: 126 NaCl, 2.5 KCl, 1.25 NaHPO4, 1.2 MgSO4, 10 glucose, 1.2 CaCl2, and 26 NaHCO3. Slices were submerged and continuously perfused at 2 ml/min with oxygenated ACSF at 33° C. during the current-clamp experiments. Voltage-clamp experiments were performed in the same ACSF but with 1 mM tetraethylammonium chloride (Sigma-Aldrich) and 0.5 μM tetrodotoxin (Sigma-Aldrich) added. Pyramidal CA1 neurons were visualized and identified with an upright microscope (Zeiss Axioskop Plus; Zeiss Jena, Germany) with infrared differential interference contrast optics. Recording pipettes (2-5 MΩ) were filled with intracellular solution containing (in mM): 126 K-gluconate; 4 KCl; 10 HEPES; 2 Mg-adenosine triphosphate; 0.3 Tris-guanosine triphosphate; 10 phosphocreatine, pH 7.20, 270-290 mOsm. In the current-clamp mode, depolarizing current pulses were applied from a membrane potential of −65 mV to evoke tonic firing activity. In the voltage-clamp mode, neurons were held at −55 mV and KCa currents elicited by 50-ms voltage steps to 10 mV, applied every 10 s. SKA-19 or NS309 were perfused for 10 min into the bath to allow for equilibrium. Recordings were performed in the whole-cell mode using a MultiClamp 700B amplifier (Molecular Devices), […] and sampled at 20 kHz with a Digidata 1322A digitizer (Molecular Devices). Data were acquired and analyzed with pClamp 10.2 software (Molecular Devices).

Another assay concerns the target Nav1.4 (Homo sapiens (Human), UniProt P35499). In words: Voltage-clamp, Nav1.4 in HEK-293 cells. The format is cell-based. The method, then: All experiments were conducted at room temperature (22-24° C.) with an EPC-10 amplifier and Pulse software (HEKA, Lambrecht/Pfalz, Germany) in the whole-cell mode of the patch-clamp technique. Human embryonic kidney (HEK)-293 cell lines stably expressing hNav1.1, hNav1.5, hNav1.7 channels (generously provided by Dr. Christopher Lossin, University of California Davis), hNav1.4 (Frank Lehmann-Horn, University of Ulm), or hKv2.1 channels (James Trimmer, University of California Davis) were bathed in extracellular solution containing (in mM): 160 NaCl; 4.5 KCl; 1 MgCl2; 2 CaCl2; 10 HEPES [pH was adjusted to 7.4 using NaOH (310 mOsm)]. Pipettes were filled with intracellular solution containing (in mM): 145 KF; 2 MgCl2; 10 ethylene glycol tetraacetic acid; 10 HEPES (pH adjusted to 7.2 with KOH; 300 mOsm). Neuroblastoma N1E-115 cells (ATCC, Manassa, Va., USA) expressing Nav1.2 were patched with a CsF internal solution consisting of (in mM): 10 NaF; 110 CsF; 20 CsCl; 2 ethylene glycol tetraacetic acid; 10 HEPES (CsOH to pH 7.35; 300 mOsm). All pipette tip resistances were 2-4 MΩ. Series resistances of 3-10 MΩ were compensated 40-80%. All cells were voltage-clamped to a holding potential of −90 mV unless otherwise specified. The sampling frequency was 5 kHz. Na^+ currents were elicited by 30-ms pulse to 0 mV from −90 mV applied every 10 s. […]

Entries after “also recorded” stand apart in the source; their conditions may differ.

As a reminder, the IC50 is the concentration that inhibits the measured activity by half.

Sequence of Nav1.4 (P35499 whole entry): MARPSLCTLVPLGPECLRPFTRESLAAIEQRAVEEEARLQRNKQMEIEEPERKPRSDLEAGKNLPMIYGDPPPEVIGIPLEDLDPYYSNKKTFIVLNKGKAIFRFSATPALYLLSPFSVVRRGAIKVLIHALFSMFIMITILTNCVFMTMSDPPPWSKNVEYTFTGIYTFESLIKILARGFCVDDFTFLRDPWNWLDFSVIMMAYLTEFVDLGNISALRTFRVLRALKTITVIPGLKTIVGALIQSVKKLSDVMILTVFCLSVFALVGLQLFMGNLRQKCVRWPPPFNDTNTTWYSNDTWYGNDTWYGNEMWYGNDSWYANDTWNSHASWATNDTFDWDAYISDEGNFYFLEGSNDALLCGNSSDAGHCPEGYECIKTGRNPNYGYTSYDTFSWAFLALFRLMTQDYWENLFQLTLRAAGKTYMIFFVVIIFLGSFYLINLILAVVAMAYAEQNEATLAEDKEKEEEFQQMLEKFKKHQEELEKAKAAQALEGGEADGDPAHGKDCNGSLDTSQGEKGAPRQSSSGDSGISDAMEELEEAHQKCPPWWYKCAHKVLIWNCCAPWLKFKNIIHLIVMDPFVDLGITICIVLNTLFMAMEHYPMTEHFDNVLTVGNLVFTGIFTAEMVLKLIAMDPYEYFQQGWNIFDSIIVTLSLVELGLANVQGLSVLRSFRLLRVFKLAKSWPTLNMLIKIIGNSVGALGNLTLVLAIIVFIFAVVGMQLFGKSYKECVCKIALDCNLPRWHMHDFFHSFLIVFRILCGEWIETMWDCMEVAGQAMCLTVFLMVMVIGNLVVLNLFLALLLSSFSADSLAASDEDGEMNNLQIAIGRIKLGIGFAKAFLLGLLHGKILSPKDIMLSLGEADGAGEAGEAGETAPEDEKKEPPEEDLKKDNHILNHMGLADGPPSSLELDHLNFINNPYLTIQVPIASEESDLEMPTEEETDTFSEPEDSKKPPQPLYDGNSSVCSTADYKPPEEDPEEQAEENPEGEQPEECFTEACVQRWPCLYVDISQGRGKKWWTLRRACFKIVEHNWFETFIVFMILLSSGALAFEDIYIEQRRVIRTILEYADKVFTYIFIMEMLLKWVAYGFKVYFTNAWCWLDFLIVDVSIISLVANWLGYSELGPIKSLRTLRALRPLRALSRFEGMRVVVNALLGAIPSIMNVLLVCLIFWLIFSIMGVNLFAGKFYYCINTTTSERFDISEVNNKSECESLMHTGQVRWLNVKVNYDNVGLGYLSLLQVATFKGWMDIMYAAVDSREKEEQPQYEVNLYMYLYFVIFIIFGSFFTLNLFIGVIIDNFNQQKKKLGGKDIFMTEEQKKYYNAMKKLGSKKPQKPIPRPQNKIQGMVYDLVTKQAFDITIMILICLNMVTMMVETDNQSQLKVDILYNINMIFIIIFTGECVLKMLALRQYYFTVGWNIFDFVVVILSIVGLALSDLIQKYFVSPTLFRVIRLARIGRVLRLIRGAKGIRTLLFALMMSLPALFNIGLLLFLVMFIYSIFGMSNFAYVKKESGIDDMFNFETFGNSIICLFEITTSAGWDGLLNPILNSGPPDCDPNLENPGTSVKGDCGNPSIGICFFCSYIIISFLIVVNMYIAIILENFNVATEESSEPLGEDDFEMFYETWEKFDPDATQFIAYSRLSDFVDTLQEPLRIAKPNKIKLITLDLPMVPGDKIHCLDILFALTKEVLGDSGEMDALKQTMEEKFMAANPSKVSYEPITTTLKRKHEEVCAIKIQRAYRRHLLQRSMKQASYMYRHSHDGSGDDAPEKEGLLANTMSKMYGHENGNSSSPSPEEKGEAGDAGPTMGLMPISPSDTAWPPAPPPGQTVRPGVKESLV

With `Nc1nc2ccc(SC(F)(F)F)cc2s1` [SKA-19, 6-((trifluoromethyl)thio)benzo[d]thiazol-2-amine], the figures for the “effect on AP firing” value in the assay with CA1 pyramidal neurons (1 μM) and in the assay with CA1 pyramidal neurons (25 μM) were “slowed down AP firing” and “completely suppressed”, respectively. Further, the “reduction of the number of spikes” value in the assay with CA1 pyramidal neurons (10 μM, all injected current levels) is reported as “roughly 50%”. Moreover, the “after-hyperpolarization amplitude of individual APs” value in the assay on CA1 pyramidal neurons (10 μM, current-clamp) is recorded as “increase in after-hyperpolarization amplitude”. Further, the mAHP current amplitude entry in the assay on CA1 pyramidal neurons (voltage-clamp, 10 μM) is recorded as “modest but significant increase; also recorded: increases the amplitude”. Besides, the “block of Nav1.4” value on Nav1.4 is “low micromolar range”. In addition, the half-inhibitory concentration (IC50) on Nav1.4 (read-out: EC50 or IC50, Nav1.4) worked out at 4.5 ± 2.7 µM.
